Measured values as given in patent publication US8895585B2, “Nicotinamide derivative or salt thereof” (FUJIFILM Corporation, priority 2010, dated 2014).

Target: T1, glutathione S-transferase (GST)-fused full-length human Syk protein (Homo sapiens, UniProt P43405)
T1 construct: (GST)-fused full-length human Syk protein; GST (glutathione S-transferase); purchased Carna Biosciences
Test: Syk enzyme assay
Format: biochemical
Settings: Syk enzyme assay, Test Example 1; read-out: IC50 of Syk-inhibitory activity
How it was run: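 IC50 values come from a time-resolved FRET readout (615 and 665 nm) of substrate phosphorylation, measured after an EDTA stop and 1 h antibody binding. The kinase reaction ran 40 min at room temperature with 27 μM ATP and 0.4 μM biotin-peptide, following a 15 min compound preincubation with baculovirus-made GST-full-length human Syk.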

| Compound | IC50 [µM] |
| --- | --- |
| CCCC[C@H](CN)Nc1nc(Nc2cnc(C)c(C)c2)c(C(N)=O)cc1F [Example 006-341, (R)-6-((1-aminohexane-2-yl)amino)-2-((5,6-dimethylpyridin-3-yl)amino)-5-fluoronicotinamide] | 0.01 to 0.05 |
| NC(=O)c1cc(F)c(N[C@@H]2CCCC[C@@H]2N)nc1Nc1cncnc1 [Example 004-001] | 0.1 to 1 |
| COc1cc(-c2cncc(Nc3nc(NC4CCCCC4N)c(F)cc3C(N)=O)c2)cc(OC)c1OC (stereo not shown) [Example 002-171] | 0.05 to 0.1 |
| CC(C)C[C@H](CN)Nc1nc(Nc2cncc(-c3ccccc3)c2)c(C(N)=O)cc1F [Example 006-235, (R)-6-((1-amino-4-methylpentan-2-yl)amino)-5-fluoro-2-((5-phenylpyridin-3-yl)amino)nicotinamide] | 0.01 to 0.05 |
| C[C@H](N)[C@@H](CC1CC1)Nc1nc(Nc2ccc3c(c2)c(N2CCOCC2)nn3C)c(C(N)=O)cc1F [Example 006-561, 6-(((2R,3S)-3-amino-1-cyclopropylbutan-2-yl)amino)-5-fluoro-2-((1-methyl-3-morpholino-1H-indazol-5-yl)amino)nicotinamide] | < 0.01 |
| NC(=O)c1cc(F)c(NC2CCCCC2N)nc1Nc1ccc2cnn(CC3CC3)c2c1 (stereo not shown) [Example 002-046] | < 0.01 |
| CCC[C@@H](Nc1nc(Nc2cc(OC)nc(OC)c2)c(C(N)=O)cc1F)[C@@H](N)CC [Example 006-413, 6-(((3S,4R)-3-aminoheptan-4-yl)amino)-2-((2,6-dimethoxypyridin-4-yl)amino)-5-fluoronicotinamide] | < 0.01 |
| CCc1nn(CC)c2ccc(Nc3nc(N[C@H](CC(C)C)[C@H](C)N)c(F)cc3C(N)=O)cc12 [Example 006-540, 6-(((2S,3R)-2-amino-5-methylhexan-3-yl)amino)-2-((1,3-diethyl-1H-indazol-5-yl)amino)-5-fluoronicotinamide] | < 0.01 |
| NC(=O)c1cc(F)c(NC2CCCCC2N)nc1Nc1ccnc(-c2cc(F)ccc2F)c1 (stereo not shown) [Example 002-145] | < 0.01 |
| COc1cccc(C(=O)Nc2cncc(Nc3nc(NC4CCCCC4N)c(F)cc3C(N)=O)c2)c1 (stereo not shown) [Example 027-028] | 0.01 to 0.05 |
| CCCC[C@H](CN)Nc1nc(Nc2cccc3c2cnn3C)c(C(N)=O)cc1F [Example 006-339, (R)-6-((1-aminohexan-2-yl)amino)-5-fluoro-2-((1-methyl-1H-indazol-4-yl)amino)nicotinamide] | 0.01 to 0.05 |
| COc1cc(Nc2nc(NCC3CC3)c(F)cc2C(N)=O)cc(OC)c1 [Example 016-008] | 0.1 to 1 |
| Cc1ncc(Nc2nc(N[C@@H]3CCCC[C@@H]3N)c(F)cc2C(N)=O)cc1Cl [Example 006-567, 6-(((1R,2S)-2-aminocyclohexyl)amino)-2-((5-chloro-6-methylpyridin-3-yl)amino)-5-fluoronicotinamide] | 0.01 to 0.05 |
| NC(=O)c1cc(F)c(NC2CCCCC2N)nc1Nc1ccnc(-c2cccc3cccnc23)c1 (stereo not shown) [Example 002-182] | 0.1 to 1 |
| COCC(C)Oc1ncc(Nc2nc(N[C@@H]3CCCC[C@@H]3N)c(F)cc2C(N)=O)c2ccccc12 (relative stereo) [Example 004-154, 6-(cis-2-aminocyclohexylamino)-5-fluoro-2-((1-((1-methoxypropan-2-yl)oxy)isoquinolin-4-yl)amino)nicotinamide] | 0.1 to 1 |
| CS(=O)(=O)Nc1cncc(Nc2nc(NC3CCCCC3N)c(F)cc2C(N)=O)c1 (stereo not shown) [Example 027-006] | 0.1 to 1 |
| CCCOc1cnc2cc(Nc3nc(N[C@@H]4CCCC[C@@H]4N)c(F)cc3C(N)=O)ccc2n1 (relative stereo) [Example 004-177, 6-(cis-2-aminocyclohexylamino)-5-fluoro-2-((2-propoxyquinoxalin-6-yl)amino)nicotinamide] | 0.01 to 0.05 |
| NC(=O)c1cc(F)c(NC2CCCCC2N)nc1Nc1cccc2nn(Cc3ccccc3)cc12 (stereo not shown) [Example 002-033] | < 0.01 |
| NC(=O)c1cc(F)c(NCc2cnn[nH]2)nc1Nc1ccc2ncccc2c1 [Example 012-027] | 0.05 to 0.1 |
| COCCOc1ncc(Nc2nc(N[C@@H]3CCCC[C@@H]3N)c(F)cc2C(N)=O)cc1N1CCOCC1 [Example 006-566, 6-(((1R,2S)-2-aminocyclohexyl)amino)-5-fluoro-2-((6-(2-methoxyethoxy)-5-morpholinopyridin-3-yl)amino)nicotinamide] | 0.1 to 1 |
| COCCNc1cccc2cc(Nc3nc(N[C@@H]4CCCC[C@@H]4N)c(F)cc3C(N)=O)cnc12 [Example 004-122] | < 0.01 |

| Compound | IC50 [µM] |
| --- | --- |
| NC(=O)c1cc(F)c(N[C@@H]2CCCC[C@@H]2N)nc1Nc1ccc2[nH]ccc2c1 (relative stereo) [Example 004-070, 2-((1H-indol-5-yl)amino)-6-(cis-2-aminocyclohexylamino)-5-fluoronicotinamide] | < 0.01 |
| COc1cc(Nc2nc(NCCC(N)=O)c(F)cc2C(N)=O)cc(OC)c1 [Example 033-003] | 0.1 to 1 |
| Cn1c(C(=O)NCCN2CCOCC2)cc2c(Nc3nc(N[C@@H]4CCCC[C@@H]4N)c(F)cc3C(N)=O)ccnc21 [Example 029-011] | 0.1 to 1 |
| NC(=O)c1cc(F)c(NC2CCCCC2N)nc1Nc1ccnc(OCc2ccccc2)c1 (stereo not shown) [Example 002-086] | 0.01 to 0.05 |
| CC(C)C[C@@H](CN)Nc1nc(Nc2ccc3ncccc3c2)c(C(N)=O)cc1F [Example 006-203, (S)-6-((1-amino-4-methylpentan-2-yl)amino)-5-fluoro-2-((quinolin-6-yl)amino)nicotinamide] | 0.1 to 1 |
| CC(C)[C@@H](Nc1nc(Nc2ccc3ncccc3c2)c(C(N)=O)cc1F)C(N)=O [Example 012-032] | 0.05 to 0.1 |
| CCOc1cc(Nc2nc(NC3CCCCC3N)c(F)cc2C(N)=O)cc(OCC)n1 (stereo not shown) [Example 002-061] | < 0.01 |
| CCNc1nc(Nc2cc(OC)cc(OC)c2)c(C(N)=O)cc1F [Example 016-001] | 0.1 to 1 |
| NC(=O)c1cc(F)c(N[C@@H]2CCCC[C@@H]2N)nc1Nc1cc(F)c2c(ccn2CCN2CCOCC2)c1 (relative stereo) [Example 004-080, 6-(cis-2-aminocyclohexylamino)-5-fluoro-2-((7-fluoro-1-(2-morpholinoethyl)-1H-indol-5-yl)amino)nicotinamide] | < 0.01 |
| NC(=O)c1cc(F)c(N[C@@H]2CCCC[C@@H]2N)nc1Nc1cnc2c(NS(=O)(=O)CCl)cccc2c1 (relative stereo) [Example 41-3, 6-(cis-2-aminocyclohexylamino)-2-((8-(2-chloromethylsulphonamide)quinolin-3-yl)amino)-5-fluoronicotinamide] | 0.01 to 0.05 |
| COc1cc(Nc2nc(N[C@@H](C(N)=O)C(C)(C)C)c(F)cc2C(N)=O)cc(OC)c1 [Example 033-005] | 0.1 to 1 |
| CCOc1ccc2cc(Nc3nc(NC4CCCCC4N)c(F)cc3C(N)=O)ccc2n1 (stereo not shown) [Example 002-103] | < 0.01 |
| COc1cc(Nc2nc(N[C@@H](C(N)=O)c3ccccc3)c(F)cc2C(N)=O)cc(OC)c1 [Example 016-017] | 0.01 to 0.05 |
| COc1ccnc2cc(Nc3nc(NC4CCCCC4N)c(F)cc3C(N)=O)ccc12 (stereo not shown) [Example 002-089] | 0.01 to 0.05 |
| COc1ncc(Nc2nc(NC3CCCCC3N)c(F)cc2C(N)=O)cc1Cl (stereo not shown) [Example 002-203] | 0.01 to 0.05 |
| CC(C)COCCOc1nccc2cc(Nc3nc(N[C@@H]4CCCC[C@@H]4N)c(F)cc3C(N)=O)ccc12 (relative stereo) [Example 004-170, 6-(cis-2-aminocyclohexylamino)-5-fluoro-2-((1-(2-isobutoxyethoxy)isoquinolin-6-yl)amino)-nicotinamide] | < 0.01 |
| NC(=O)c1cc(F)c(N[C@@H]2CCCC[C@@H]2N)nc1Nc1ccc2nc(-n3cccn3)ccc2c1 (relative stereo) [Example 004-203, 2-((2-(1H-pyrazol-1-yl)quinolin-6-yl)amino)-6-(cis-2-aminocyclohexylamino)-5-fluoronicotinamide] | < 0.01 |
| CCCC[C@H](CN)Nc1nc(Nc2ccc3c(cnn3C)c2)c(C(N)=O)cc1F [Example 006-292, (R)-6-((1-aminohexan-2-yl)amino)-5-fluoro-2-((1-methyl-1H-indazol-5-yl)amino)nicotinamide] | < 0.01 |
| NC(=O)c1cc(F)c(NC2CCCCC2N)nc1Nc1cccc2c1cnn2Cc1ccccc1 (stereo not shown) [Example 002-029] | 0.01 to 0.05 |
| Cn1ccc2c(Nc3nc(N[C@@H]4CCCC[C@@H]4N)c(F)cc3C(N)=O)cc(C(F)(F)F)cc21 [Example 004-086] | < 0.01 |

Same assay, conditions: read-out: Syk-inhibitory activity (IC50)

| Compound | IC50 [µM] |
| --- | --- |
| COc1cc(Nc2nc(N[C@H](C(N)=O)c3ccccc3)c(F)cc2C(N)=O)cc(OC)c1 [Example 16-18, 6-(((1S)-2-amino-2-oxo-1-phenylethyl)amino)-2-((3,5-dimethoxyphenyl)amino)-5-fluoronicotinamide] | ≤ 1 |
| COc1ccc(Nc2nc(N[C@@H]3CCCC[C@@H]3N)c(F)cc2C(N)=O)cn1 (relative stereo) [Example 2-10, 6-(cis-2-aminocyclohexylamino)-5-fluoro-2-((6-methoxypyridin-3-yl)amino)nicotinamide] | ≤ 1 |
| Cc1nc2ccc(Nc3nc(NCCN)c(F)cc3C(N)=O)cc2s1 [Example 6-21, 6-((2-aminoethyl)amino)-5-fluoro-2-((2-methylbenzo[d]thiazol-6-yl)amino)nicotinamide] | ≤ 1 |
| NC(=O)c1cc(F)c(N[C@@H]2CCCC[C@@H]2N)nc1Nc1cncc(C(=O)O)c1 (relative stereo) [Example 29-1, 5-((3-aminocarbonyl-6-(cis-2-aminocyclohexylamino)-5-fluoropyridin-2-yl)amino)nicotinic acid] | ≤ 1 |
| COc1ccc(Nc2nc(N[C@@H]3CCCC[C@@H]3N)c(F)cc2C(N)=O)c2cccnc12 (relative stereo) [Example 6-67, 6-(cis-2-aminocyclohexylamino)-5-fluoro-2-((8-methoxyquinolin-5-yl)amino)nicotinamide] | ≤ 1 |
